Measurements from ChEMBL document CHEMBL4610104, “Dipleosporalones A and B, Dimeric Azaphilones from a Marine-Derived Pleosporales sp. Fungus” (J Nat Prod, 2020).

Experiments:
MGC-803 [1] = test: Cytotoxicity against human MGC803 cells by MTT assay; format: functional, cell-based
MCF7 [2] = test: Cytotoxicity against human MCF7 cells by MTT assay; format: functional, cell-based
A549 [3] = test: Cytotoxicity against human A549 cells by MTT assay; format: functional, cell-based
HeLa [4] = test: Cytotoxicity against human HeLa cells by MTT assay; format: functional, cell-based
MDA-MB-231 [5] = test: Potency index, ratio of pinophilin-B IC50 to test compound IC50 against human MDA-MB-231 cells; format: functional
MGC-803 [6] = test: Potency index, ratio of pinophilin-B IC50 to test compound IC50 against human MGC803 cells; format: functional
HeLa [7] = test: Potency index, ratio of pinophilin-B IC50 to test compound IC50 against human HeLa cells; format: functional
MDA-MB-231 [8] = test: Cytotoxicity against human MDA-MB-231 cells by MTT assay; format: functional, cell-based
A549 [9] = test: Potency index, ratio of pinophilin-B IC50 to test compound IC50 against human A549 cells; format: functional
MCF7 [10] = test: Potency index, ratio of pinophilin-B IC50 to test compound IC50 against human MCF7 cells; format: functional

| SMILES | IC50 (MGC-803 [1]) | IC50 (MCF7 [2]) | IC50 (A549 [3]) | IC50 (HeLa [4]) | Ratio IC50 (MDA-MB-231 [5]) | Ratio IC50 (MGC-803 [6]) | Ratio IC50 (HeLa [7]) | IC50 (MDA-MB-231 [8]) | Ratio IC50 (A549 [9]) | Ratio IC50 (MCF7 [10]) |
| --- | --- | --- | --- | --- | --- | --- | --- | --- | --- | --- |
| Cc1cc(O)cc(O)c1C(=O)O[C@H]1[C@@H]2COC([C@H]3[C@H](CO)[C@H]4C(=O)[C@@](C)(O)[C@@H](OC(=O)c5c(C)cc(O)cc5O)[C@@H]5COC(/C=C/CO)=C[C@]453)=CC2=CC(=O)[C@@]1(C)O | 1.3 µM | 2.1 µM | 1 µM | 2.5 µM | 30 - 90 | 30 - 90 | 30 - 90 | 1.9 µM | 30 - 90 | 30 - 90 |
| Cc1cc(O)cc(O)c1C(=O)O[C@H]1[C@@H]2COC([C@H]3[C@H](CO)[C@@H](CO)[C@@H]3C3=CC4=CC(=O)[C@@](C)(O)[C@@H](OC(=O)c5c(C)cc(O)cc5O)[C@@H]4CO3)=CC2=CC(=O)[C@@]1(C)O | 2 µM | > 10 µM | 3.5 µM | 3 µM | 30 - 90 | 30 - 90 | 30 - 90 | 3.8 µM | 30 - 90 | 30 - 90 |
| Cc1cc(O)cc(O)c1C(=O)O[C@H]1[C@@H]2COC(/C=C/CO)=CC2=CC(=O)[C@@]1(C)O [PINOPHILIN B] | 84 µM | 95 µM | 89 µM | 78 µM |  |  |  | 97 µM |  |  |
